“Also recorded” adds a separate entry of the source.
Test system: cells of draining cervical lymph nodes
Experiment: Flow cytometry of draining cervical lymph nodes, desiccating stress 1 day
Assay type: in vivo, mouse
Details: 1 day DS; for CD11c+ dendritic cells in draining cervical lymph nodes / CD11c+/MHC II+ dendritic cells in draining cervical lymph nodes: listed as compound of formula I
Description: Female C57BL/6 mice, aged 6 to 8 weeks, were subjected to DS for 5 days (DS5) as described previously (de Paiva et al., 2006b; Niederkorn et al., 2006). Topical bilateral treatment with 1 eye drop per eye (2 μL volume) or subcutaneous injection (4 μL volume), 2 times per day, was initiated on day 1 concurrently with DS and continued through day 4. Treatment with the compound of formula I or dexamethasone phosphate 0.1% was compared to correspondingly treated vehicle controls. Mice were randomized to receive one of the test articles. Control mice were kept in a non-stressed (NS) environment maintained at 50-75% relative humidity without exposure to airflow or scopolamine and were not treated with test or control article. Treatment effects were assessed on corneal staining with Oregon Green Dextran (OGD); expression of inflammatory markers in ocular surface tissues by real time PCR; cell population analysis in draining cervical lymph nodes by FACS analysis; conjunctival T cell infiltration by immunohistochemistry.
Cervical draining lymph nodes (CLN) were surgically excised, placed in a round culture plate with ˜8 mL of complete RPMI media and smashed between two frosted slides.
Single-cell suspensions of CLN from C57BL/6 mice, treated under DS conditions for 1 day, were prepared, centrifuged and sequentially filtered, as previously described (de Paiva et al., 2009a). Subsequently 1.0 mL of ACT solution was added for 30 seconds followed by 2.0 mL of complete RPMI. The cells were once again centrifuged and the supernatant aspirated. Cells were then re-suspended in 2.0 mL of complete RPMI and prepared for counting. Ten μL of Trypan Blue were used for counting and the cells were divided in tubes at 1×10^6 cells/mL. Subsequently, the cells were incubated on ice in 20 μL unconjugated anti-mouse CD16/CD32 (BD Pharmingen, San Diego, Calif.) followed by 80 μL of directly conjugated primary antibody or isotype. Finally the samples were washed with 1 mL PBS/1% FBS, centrifuged and re-suspend in 0.3 mL PBS/1% FBS containing 1:1000 of PI. The samples were stored at 4° C. until the analysis was performed with an A BD LSRII Benchtop cytometer. The data was analysed using BD Diva Software (BD Pharmingen) and FlowJo (TreeStar Inc).
Due to skewed distribution of OGD data, the analysis was done on the log 10 scale to make the data more normally distributed. Log 10 OGD data was averaged across two observers and the left and right eyes. The mixed effects ANOVA model included treatment group as a fixed effect and week as a random effect. 95% and 99% confidence intervals were constructed for the disease (5 day DS vs untreated group kept in separate vivarium) and compound treatment effects (treatment vs vehicle). As these comparisons were all pre-planned (comparing each treatment to its vehicle group), no adjustment was made for multiplicity. Log 10 scale treatment effect estimates and confidence limits were converted back to the original OGD scale, thus representing the estimate for the ratio of group geometric means and their confidence limits. For gene expression analysis, an unpaired T test was performed to compare drug and vehicle treatment. For flow cytometry analysis, a 2-way ANOVA with fixed treatment and random experiment effects was employed to test the treatment differences. The analysis was followed by Dunnett's multiple comparison procedure to compare each of the treatment groups with the vehicle group. T cell density was calculated for each section and averaged across sections for each animal. As the distribution of average cell density data was non-normal, it was analyzed by using non-parametric methods (Kruskal-Wallis procedure, followed by Dunn's multiple comparisons technique).
The draining CLN are an integral part of the immune cycle in DED (Pflugfelder et al., 2008; Schaumburg et al., 2011). […]

[1] = topical treatment, vs vehicle (GW559090 30 mg/mL, 60 μg per eye; Dex 0.1%)

Cc1ccccc1OCC(=O)N[C@@H](CC(C)C)C(=O)N[C@@H](Cc1ccc(OC(=O)N2CCC(C(N)=O)CC2)cc1)C(=O)O [GW559090, (2S)-3-[4-({[4-(Aminocarbonyl)-1-piperidinyl]carbonyl}oxy)phenyl]-2-[((2S)-4-methyl-2-{[2-(2-methylphenoxy)acetyl]amino}pentanoyl)amino]propanoic acid]
CD4+ and CD8+ T cells in draining lymph nodes: nor did treatment with the compound of formula I or dexamethasone decrease the number of T cells
CD11c+ dendritic cells in draining cervical lymph nodes (systemic (SC BID, 120 μg)): Neither systemic treatment with the compound of formula I nor topical treatment with dexamethasone phosphate produced the same effect; also recorded: no significant effect
CD11c+/MHC II+ dendritic cells in draining cervical lymph nodes (systemic (SC BID, 120 μg)): no significant effect
CD11c+ dendritic cells in draining cervical lymph nodes [1]: reduced; also recorded: decreases
CD11c+/MHC II+ dendritic cells in draining cervical lymph nodes [1]: reduced; also recorded: decreases

Reference: patent US10413535B2, “Pharmaceutical compositions comprising an integrin ALPHA4 antagonist for use in treating ocular inflammatory conditions” (AXEROVISION, INC., priority 2015, dated 2019)
